Source: article PMC10525516, “Novel NADPH Oxidase-2 Inhibitors as Potential Anti-Inflammatory and Neuroprotective Agents” (Antioxidants, 2023)

Experiments:
Nox2 [1] = molecular target: T1, Nox2 (Homo sapiens, UniProt P04839); assay: Seahorse XFe96 oxygen consumption in dHL60 cells before and after PMA; format: cell-based
T1 construct: endogenous in cells
T1 sequence (P04839 2-570 limits assumed): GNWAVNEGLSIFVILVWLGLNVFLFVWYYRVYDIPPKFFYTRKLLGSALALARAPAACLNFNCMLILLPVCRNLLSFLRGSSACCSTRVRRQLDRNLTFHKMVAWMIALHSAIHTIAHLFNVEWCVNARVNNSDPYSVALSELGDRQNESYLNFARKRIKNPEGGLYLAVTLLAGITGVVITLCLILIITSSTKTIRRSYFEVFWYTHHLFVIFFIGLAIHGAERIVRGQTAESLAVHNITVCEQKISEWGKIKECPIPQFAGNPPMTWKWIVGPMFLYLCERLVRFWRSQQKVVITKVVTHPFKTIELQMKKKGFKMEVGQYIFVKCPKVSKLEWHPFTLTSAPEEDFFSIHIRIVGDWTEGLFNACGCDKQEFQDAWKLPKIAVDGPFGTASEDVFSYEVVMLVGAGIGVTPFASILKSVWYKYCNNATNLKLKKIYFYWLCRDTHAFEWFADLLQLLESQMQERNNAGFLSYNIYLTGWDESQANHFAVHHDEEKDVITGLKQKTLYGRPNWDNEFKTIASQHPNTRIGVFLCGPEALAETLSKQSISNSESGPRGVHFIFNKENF
T1 sequence (P13498 2-195 partner limits assumed): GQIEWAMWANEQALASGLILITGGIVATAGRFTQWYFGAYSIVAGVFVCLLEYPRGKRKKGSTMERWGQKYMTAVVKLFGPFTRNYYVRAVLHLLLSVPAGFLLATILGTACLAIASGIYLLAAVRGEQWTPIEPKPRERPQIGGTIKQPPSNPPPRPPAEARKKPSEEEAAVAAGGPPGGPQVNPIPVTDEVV
Method: Oxygen consumption in dHL60 cells was monitored before and after the sequential addition of the candidate Nox inhibitors and PMA using a Seahorse XFe96 extracellular flux analyzer (Agilent Technologies, Santa Clara, CA, USA). The cell suspension was prepared in phenol red-free RPMI medium (without bicarbonate) and aliquoted (80 µL/well) into a 96-well plate to obtain a final cell number of 2 × 10^4 cells/well. Cells were spun down and an additional amount of RPMI medium (100 µL/well) was added gently so as not to disturb the cells at the bottom of the wells. The solutions for injections were prepared 10× concentrated, loaded into the injection ports of the Seahorse XFe96 cartridge, and the volumes injected were 20 µL and 22.2 µL for the compounds tested and PMA, respectively. The oxygen consumption rates were monitored for 30 min before injection (baseline respiration rate), 60 min after injection of different concentrations of the candidate Nox inhibitors, and 2 h after injection of PMA (final concentration: 1 µM). Increases in OCR values after PMA injection were used as a measure of Nox2 activity.

Nox2 [2] = molecular target: T1, Nox2; assay: Rapid HPLC analysis of HE oxidation (2-OH-E+) for O2•− production by activated dHL60 cells; format: cell-based; settings: 1 h incubation after PMA, Figure 5D,E
Method: For high-performance liquid chromatography (HPLC)-based analyses of superoxide production by activated dHL60 cells, the cells (0.8 mL, 2 × 10^5 cells/mL) were pretreated with inhibitors for 30 min, as described above, followed by the addition of 200 µL of the mixture of PMA (5 µM) and HE (50 µM); then, they were incubated for 1 h at 37 °C in the dark. Next, 0.5 mL aliquots of the cell suspensions were transferred into 1.5 mL microcentrifuge tubes prefilled with 10 µL of a mixture of 3,8-diamino-6-phenylphenanthridine (50 µM, used as an internal standard), superoxide dismutase, and catalase (5 mg/mL and 5 kU/mL, respectively, used to stop probe oxidation), and the tubes were centrifugated (5 min, 3000× g) to pellet the cells. Clear supernatants (0.2 mL) were transferred into HPLC vials and analyzed for HE, 2-hydroxyethidium (2–OH–E^+), ethidium (E^+), and diethidium (E^+–E^+) content, as described previously. Briefly, an Agilent 1100 HPLC system equipped with an Ascentis Express Phenyl-Hexyl column (50 mm × 4.6 mm, 2.7 µm, Supelco, Bellefonte, PA, USA) and absorption and fluorescence detectors was used. […] Samples (25 µL) were injected, and the products were detected by monitoring absorbance (290 and 370 nm) and fluorescence (exc. 370 nm, emi. 565 nm) signals.

basal respiration (OCR) (Nox2 [1]; 1 h after compound injection, before PMA, concentrations that inhibit PMA-induced OCR): no inhibition of basal respiration
Compound: CN(C)CCCn1c(SCCc2c[nH]c3ccccc23)nc2ccc(F)cc2c1=O [TG15-132]
PMA-induced OCR (Nox2 [1]; PMA 1 µM after 1 h compound): significant inhibition of PMA-induced OCR
HE consumption and 2-OH-E+ formation (HPLC) (Nox2 [2]): inhibited by cell pretreatment with TG15-132 in a dose-dependent manner
